Test results reported in US20250236608A1, “EGFR INHIBITORS” (Blueprint Medicines Corporation, priority 2022, published 2025).
Where a name gives a salt, the structure may show the parent alone.

Assays:
EGFR (d746-750) = EGFR (d746-750) (Homo sapiens (Human), UniProt P00533, DEL746-750); test: Biochemical EGFR inhibition assay, EGFR (d746-750); conditions: Caliper mobility shift; 1.0 mM ATP or ATP Km; read-out: Enz EGFR_Exon19-del746-750 IC50
Protocol: (§1) Reactions proceeded until between 10% to 20% total peptides were phosphorylated at room temperature (25° C.) and were terminated with 35 mM 2,2′,2″,2″-(ethane-1,2-diyldinitrilo)tetraacetic acid (EDTA). Product was detected using the Caliper mobility shift detection method where the phosphorylated peptide (product) and substrate were electrophoretically separated and measured. Percent activity was plotted against log concentration of compound and points to generate an apparent IC50.

[1] = molecular target: pEGFR (Tyr1068) in PC-9 cells (Ex19Del) (Homo sapiens (Human), UniProt P00533, DEL746-750); test: PC-9 pEGFR AlphaLISA assay; assay type: cell-based; conditions: 4 hours incubation, p-EGFR (Tyr1068) AlphaLISA, read-out: Ext pEGFR_PC-9 Ex19Del IC50
Protocol: PC-9/A431 pEGFR AlphaLISA Assays
Inhibitory effects of compounds were evaluated in cellular assays that measure level of intracellular phosphorylation of EGFR in PC-9 (ECACC, #90071810, Milipore/Sigma) and A431 cell lines (ATCC, CRL-1555) using AlphaLISA sureFire ultra p-EGFR (Tyr1068) assay kit (PerkinElmer, ALSU-PEGFR-A50K). PC-9 cells were seeded at 3.125×10^5 cells/ml in 40 μL phenol-free DMEM supplemented with 10% FBS per well of a 384 well plate (Corning, 3764), while A431 were seeded at 3.125×10^5 cells/ml in 40 μL in phenol-free DMEM with 0.5% FBS. Cells were allowed to adhere overnight at 37° C./5% CO2. On the next day, compounds were transferred at 4-fold, 10-point serial dilution from compound source plate to cell plates using liquid handler Echo550 and were incubated at 37° C./5% CO2 for 4 hours. A431 cells were stimulated prior harvesting for 10 min with EGF at final concentration of 30 ng/ml in the incubator. Medium was removed from the plates and cells were lysed with 10 μL of 1× AlphaLISA lysis buffer (supplemented with 1× protease/phosphatase inhibitor cocktail) followed by shaking at 600 rpm for 30 minutes at room temperature. Lysates were transferred to Optiplate (Apricot designs) and 5 μl of 1× acceptor bead mix (prepared just before use) was added to each well followed by incubation at room temperature for 1.5-2 h in dark. Then 5 μL of freshly-made donor bead mix is added to each well under subdued lighting or green filters, was mixed well on the shaker and the plate was sealed and left for an overnight incubation at room temperature in dark. On the next day, the plate was read the Envision using standard AlphaLisa settings. Percent of pEGFR inhibition was plotted against log concentration of compounds to generate IC50 values.

EGFR L858R = EGFR L858R (Homo sapiens (Human), UniProt P00533, L858R); test: Biochemical EGFR inhibition assay, EGFR L858R; conditions: Caliper mobility shift; 1.0 mM ATP or ATP Km; read-out: Enz EGFR_L858R IC50
Protocol: as §1

Compound | IC50 (EGFR (d746-750)) [nM] | IC50 [1] [nM] | IC50 (EGFR L858R) [nM]
COc1cc2ncnc(-c3cn(CCN(C)C)nc3-c3ccccc3)c2cc1NC(=O)C12CC(C1)C2 [Example 308, N-(4-(1-(2-(dimethylamino)ethyl)-3-phenyl-1H-pyrazol-4-yl)-7-methoxyquinazolin-6-yl)bicyclo[1.1.1]pentane-1-carboxamide] | 3.5 | 6.1 | 7.3
COc1cc2ncnc(-c3cn(C)nc3-c3ccccc3)c2cc1NC(=O)[C@]12C[C@H]1CN(C)C2 [Example 337, (1R,5R)—N-(7-methoxy-4-(1-methyl-3-phenyl-1H-pyrazol-4-yl)quinazolin-6-yl)-3-methyl-3-azabicyclo[3.1.0]hexane-1-carboxamide] | – | 5.9 | –
COc1cc2ncnc(-c3cn(C)nc3-c3ccccc3)c2cc1-c1cc2c[nH]nc2cc1C [Example 147, 7-methoxy-6-(6-methyl-2H-indazol-5-yl)-4-(1-methyl-3-phenyl-1H-pyrazol-4-yl)quinazoline] | – | – | 13.7
COc1cc2ncnc(-c3cn(C)nc3-c3c(F)cccc3F)c2nc1NC(=O)[C@@]12C[C@@H]1CN(C)C2 (single isomer, unassigned) [Example 412, (1S,5S)—N-(4-(3-(2,6-difluorophenyl)-1-methyl-1H-pyrazol-4-yl)-7-methoxypyrido[3,2-d]pyrimidin-6-yl)-3-methyl-3-azabicyclo[3.1.0]hexane-1-carboxamide or (1R,5R)—N-(4-(3-(2,6-difluorophenyl)-1-methyl-1H-pyrazol-4-yl)-7-methoxypyrido[3,2-d]pyrimidin-6-yl)-3-methyl-3-azabicyclo[3.1.0]hexane-1-carboxamide] | – | 6.7 | 26
7-ethoxy-6-(2-methyl-2H-indazol-4-yl)-4-(1-methyl-3-phenyl-1H-pyrazol-4-yl)pyrido[3,2-d]pyrimidine [Example 156] | – | 2.4 | 3.2
CCC(=O)Nc1cc2c(-c3cn(C)nc3-c3ccccc3)ncnc2cc1-c1ccncn1 [Example 448, N-(4-(1-methyl-3-phenyl-1H-pyrazol-4-yl)-7-(pyrimidin-4-yl)quinazolin-6-yl)propionamide] | – | 6.5 | –
COc1cc2ncnc(-c3cn(C)nc3-c3c(F)cccc3F)c2nc1NC(=O)[C@]12C[C@H]1CN(C)C2 (single isomer, unassigned) [Example 413, (1R,5R)—N-(4-(3-(2,6-difluorophenyl)-1-methyl-1H-pyrazol-4-yl)-7-methoxypyrido[3,2-d]pyrimidin-6-yl)-3-methyl-3-azabicyclo[3.1.0]hexane-1-carboxamide or (1S,5S)—N-(4-(3-(2,6-difluorophenyl)-1-methyl-1H-pyrazol-4-yl)-7-methoxypyrido[3,2-d]pyrimidin-6-yl)-3-methyl-3-azabicyclo[3.1.0]hexane-1-carboxamide] | – | 23.2 | 10
CN1CC[C@@H](Oc2cc3c(-c4cn(C)nc4-c4ccccc4)ncnc3cc2OC2CC2)[C@H](F)C1 [Example 476, 7-cyclopropoxy-6-(((3R,4R)-3-fluoro-1-methylpiperidin-4-yl)oxy)-4-(1-methyl-3-phenyl-1H-pyrazol-4-yl)quinazoline] | 1.3 | – | 5.4
COc1cc2ncnc(-c3cn(C)nc3-c3ccccc3)c2cc1-c1ccc2n[nH]cc2c1C [Example 145, 7-methoxy-6-(4-methyl-2H-indazol-5-yl)-4-(1-methyl-3-phenyl-1H-pyrazol-4-yl)quinazoline] | – | 5.9 | –
COc1cc2ncnc(-c3cn(C)nc3-c3ccccc3)c2cc1-c1ccc2c(=O)[nH]ccc2c1 [Example 144, 6-(7-methoxy-4-(1-methyl-3-phenyl-1H-pyrazol-4-yl)quinazolin-6-yl)isoquinolin-1(2H)-one] | – | 8.3 | –
COc1cc2ncnc(-c3cn(C)nc3-c3ccccc3)c2cc1-c1cc2c[nH]nc2cc1C [Example 146, 7-methoxy-6-(6-methyl-2H-indazol-5-yl)-4-(1-methyl-3-phenyl-1H-pyrazol-4-yl)quinazoline] | – | – | 8.2
COc1cc2ncnc(-c3cn(C)nc3-c3ccccc3)c2cc1-c1ccnc(N2CCNCC2)c1 [Example 139, 7-methoxy-4-(1-methyl-3-phenyl-1H-pyrazol-4-yl)-6-(2-(piperazin-1-yl)pyridin-4-yl)quinazoline formate] | – | 5.1 | –
COc1cc2ncnc(-c3cn(C)nc3-c3ccccc3)c2cc1NC(=O)C12C3C4C1C1C2C3C41NC(=O)OC(C)(C)C (stereo not drawn) [Example 343, tert-butyl (4-((7-methoxy-4-(1-methyl-3-phenyl-1H-pyrazol-4-yl)quinazolin-6-yl)carbamoyl)cuban-1-yl)carbamate] | – | 4.5 | –

Continued by falling IC50 [1], values first:

IC50 (EGFR (d746-750)) [nM] | IC50 [1] [nM] | IC50 (EGFR L858R) [nM] | Compound
1.7 | 4 | 4.1 | COc1cc2ncnc(-c3cn(C)nc3-c3ccccc3)c2cc1NC(=O)[C@H](C)CN(C)C (single isomer, unassigned) [Example 239, (R)-3-(dimethylamino)-N-(7-methoxy-4-(1-methyl-3-phenyl-1H-pyrazol-4-yl)quinazolin-6-yl)-2-methylpropanamide or (S)-3-(dimethylamino)-N-(7-methoxy-4-(1-methyl-3-phenyl-1H-pyrazol-4-yl)quinazolin-6-yl)-2-methylpropanamide]
– | 4 | – | COc1cc2ncnc(-c3cn(C)nc3-c3ccccc3)c2cc1NC(=O)[C@@]12C[C@@H]1CN(C)C2 [Example 336, (1S,5S)—N-(7-methoxy-4-(1-methyl-3-phenyl-1H-pyrazol-4-yl)quinazolin-6-yl)-3-methyl-3-azabicyclo[3.1.0]hexane-1-carboxamide]
– | 3.5 | – | COc1cc2ncnc(-c3cn(C)nc3-c3ccccc3)c2cc1NC(=O)C1CCN1C (stereo not drawn) [Example 251, N-(7-methoxy-4-(1-methyl-3-phenyl-1H-pyrazol-4-yl)quinazolin-6-yl)-1-methylazetidine-2-carboxamide]
– | 3.2 | – | COc1cc2ncnc(-c3cn(C)nc3-c3ccccc3)c2cc1NC(=O)[C@@H]1CCN1C (single isomer, unassigned) [Example 252, (S)—N-(7-methoxy-4-(1-methyl-3-phenyl-1H-pyrazol-4-yl)quinazolin-6-yl)-1-methylazetidine-2-carboxamide or (R)—N-(7-methoxy-4-(1-methyl-3-phenyl-1H-pyrazol-4-yl)quinazolin-6-yl)-1-methylazetidine-2-carboxamide]
0.9 | 3 | 1.3 | CCOc1cc2ncnc(-c3cn(CC)nc3-c3ccccc3)c2cc1CO [Example 124, (7-ethoxy-4-(1-ethyl-3-phenyl-1H-pyrazol-4-yl)quinazolin-6-yl)methanol]
0.9 | 2.5 | 1.9 | COc1cc2ncnc(-c3cn(C)nc3-c3ccccc3)c2nc1NC(=O)[C@]12COC[C@H]1C2 (single isomer, unassigned) [Example 432, (1S,5S)—N-(7-methoxy-4-(1-methyl-3-phenyl-1H-pyrazol-4-yl)pyrido[3,2-d]pyrimidin-6-yl)-3-oxabicyclo[3.1.0]hexane-1-carboxamide or (1R,5R)—N-(7-methoxy-4-(1-methyl-3-phenyl-1H-pyrazol-4-yl)pyrido[3,2-d]pyrimidin-6-yl)-3-oxabicyclo[3.1.0]hexane-1-carboxamide]
1 | 1.6 | 10.6 | COc1cc2ncnc(-c3cn(C)nc3-c3ccccc3)c2nc1O[C@@H](C)c1ncsc1C (single isomer, unassigned) [Example 54, (S)-4-(1-((7-methoxy-4-(1-methyl-3-phenyl-1H-pyrazol-4-yl)pyrido[3,2-d]pyrimidin-6-yl)oxy)ethyl)-5-methylthiazole or (R)-4-(1-((7-methoxy-4-(1-methyl-3-phenyl-1H-pyrazol-4-yl)pyrido[3,2-d]pyrimidin-6-yl)oxy)ethyl)-5-methylthiazole]
– | 1.1 | 0.9 | Cn1cc(-c2ccc3c(-c4c[nH]nc4-c4cccc(Cl)c4)ncnc3c2)cn1 [Example 440, 4-(3-(3-chlorophenyl)-1H-pyrazol-4-yl)-7-(1-methyl-1H-pyrazol-4-yl)quinazoline]
